Experimental data as given in DBAASP.
Values after ≈ are worked out from the molar mass of the structure shown.

Experiments:
Test in all cases: ≥ marks a high value that may be exact or a test limit, other limits are often not marked, values filed in µg/mL are converted to µM
[1] = system: Staphylococcus aureus ATCC BAA-41
[2] = system: Staphylococcus aureus ATCC 6538P
[3] = system: Pseudomonas aeruginosa PAO1
Escherichia coli BL21 = system: Escherichia coli BL21
[4] = system: Staphylococcus epidermidis
[5] = system: Staphylococcus aureus ATCC 25923
[6] = system: Escherichia coli ATCC 25922
[7] = system: Enterococcus faecalis PCM 2673
[8] = system: Candida albicans ATCC 10231
[9] = system: Pseudomonas aeruginosa ATCC 9027
[10] = system: Pseudomonas aeruginosa Ps4
[11] = system: Klebsiella pneumoniae ATCC 700603
[12] = system: Pseudomonas aeruginosa ATCC 27853
[13] = system: Acinetobacter baumannii ATCC 19606
[14] = system: Staphylococcus aureus SH1000
[15] = system: Candida albicans ATCC 90028
[16] = system: Staphylococcus aureus ATCC 43300
[17] = system: Cryptococcus neoformans ATCC 208821
[18] = system: Pseudomonas aeruginosa PA14
[19] = system: Klebsiella aerogenes ATCC 13048
[20] = system: Staphylococcus aureus ATCC 29231
[21] = system: Pseudomonas aeruginosa H547
[22] = system: Pseudomonas aeruginosa Z61
[23] = system: Burkholderia cepacia ATCC 25416
[24] = system: Pseudomonas aeruginosa H744
[25] = system: Salmonella enterica subsp. enterica serovar Typhimurium ATCC 14028s
[26] = system: Pseudomonas aeruginosa K799
Escherichia coli UB1005 = system: Escherichia coli UB1005
[27] = system: Pseudomonas aeruginosa H374

For `CC[C@H](C)[C@H](NC(=O)[C@H](CCCCN)NC(=O)[C@H](CCCCN)NC(=O)[C@H](Cc1ccccc1)NC(=O)[C@H](CCCCN)NC(=O)[C@H](CCCCN)NC(=O)[C@H](Cc1c[nH]c2ccccc12)NC(=O)[C@@H](N)CCCCN)C(=O)NCC(=O)N[C@@H](CCCCN)C(=O)N[C@H](C(=O)N[C@@H](CC(C)C)C(=O)N[C@@H](CCCCN)C(=O)N[C@H](C(=O)N[C@@H](CC(C)C)C(=O)O)C(C)C)C(C)C` [KWKKFKKIGKVLKVL], the MIC [1] was 16 µM (≈ 29.5 µg/mL), the MIC [2] was 16 µM (≈ 29.5 µg/mL) and the MIC [3] was 0.707 µM (≈ 1.3 µg/mL). It also gave an MIC (Escherichia coli BL21) of 0.5 µM (≈ 0.922 µg/mL) and an MIC [4] of 0.25 µM (≈ 0.461 µg/mL).
For `CC[C@H](C)[C@H](NC(=O)[C@H](C)NC(=O)[C@H](CC(=O)O)NC(=O)[C@H](Cc1ccccc1)NC(=O)[C@H](CC(C)C)NC(=O)CN)C(=O)N[C@@H](CCCCN)C(=O)N[C@@H](CCCCN)C(=O)N[C@H](C(=O)N[C@@H](C)C(=O)N[C@@H](CCC(=O)O)C(=O)N[C@@H](CO)C(=O)N[C@@H](Cc1ccccc1)C(N)=O)[C@@H](C)CC` [GLFDAIKKIAESF], the MIC [5] was greater than 356 µM, the MIC [6] was 178 µM (≈ 256 µg/mL) and the MIC [7] was no less than 89 µM. The MIC [8] was 178 µM (≈ 256 µg/mL) and the MIC [9] was 356 µM (≈ 512 µg/mL).
`CC[C@H](C)[C@H](NC(=O)[C@H](CCCCN)NC(=O)[C@H](CCCCN)NC(=O)[C@@H](NC(=O)[C@@H](NC(=O)[C@H](CC(=O)O)NC(=O)[C@H](C)NC(=O)[C@H](CC(C)C)NC(=O)CN)[C@@H](C)CC)[C@@H](C)CC)C(=O)N[C@@H](C)C(=O)N[C@@H](CCC(=O)O)C(=O)N[C@@H](CO)C(=O)N[C@@H](Cc1ccccc1)C(N)=O` [GLADIIKKIAESF] gave an MIC [5] of 365 µM (≈ 512 µg/mL), an MIC [6] of 91.1 µM (≈ 128 µg/mL) and an MIC [7] of no less than 182 µM. It also gave an MIC [8] of 91.1 µM (≈ 128 µg/mL) and an MIC [9] of 365 µM (≈ 512 µg/mL).
`CC[C@H](C)[C@H](NC(=O)[C@H](CCCN=C(N)N)NC(=O)[C@@H](NC(=O)[C@H](CC(N)=O)NC(=O)[C@H](CCCN=C(N)N)NC(=O)[C@H](Cc1c[nH]c2ccccc12)NC(=O)[C@@H](N)Cc1ccccc1)[C@@H](C)CC)C(=O)N[C@@H](Cc1c[nH]c2ccccc12)C(=O)N[C@@H](CCCN=C(N)N)C(=O)N[C@@H](CCCN=C(N)N)C(N)=O` [FWRNIRIWRR] showed an MIC [10] of no less than 166 µM.
`CC(C)C[C@H](NC(=O)[C@H](C)NC(=O)[C@H](CCCCN)NC(=O)[C@H](CC(C)C)NC(=O)[C@H](CC(C)C)NC(=O)[C@H](CCCCN)NC(=O)[C@H](CCCCN)NC(=O)[C@H](CC(C)C)NC(=O)[C@H](CC(C)C)NC(=O)[C@H](CCCCN)NC(=O)[C@H](CC(C)C)NC(=O)[C@H](CC(C)C)NC(=O)[C@@H](N)CCCCN)C(=O)NCC(N)=O` [KLLKLLKKLLKALG] was tested, and the MIC [11] was greater than 20 µM, the MIC [12] was greater than 20 µM and the MIC [13] was 1 µM (≈ 1.58 µg/mL). For the same molecule, the MIC [14] was no less than 33 µM, the MIC [6] was 20 µM (≈ 31.6 µg/mL) and the MIC [15] was 20 µM (≈ 31.6 µg/mL). It also gave an MIC [16] of 10 µM (≈ 15.8 µg/mL) and an MIC [17] of 3 µM (≈ 4.73 µg/mL).
For `CC(C)C[C@H](NC(=O)[C@H](C)NC(=O)CNC(=O)[C@@H](NC(=O)[C@@H](NC(=O)[C@H](CCCCN)NC(=O)[C@H](CCCCN)NC(=O)[C@@H](NC(=O)[C@H](CC(C)C)NC(=O)[C@H](CCCCN)NC(=O)[C@H](CC(C)C)NC(=O)[C@H](CC(C)C)NC(=O)[C@@H](N)CCCCN)C(C)C)C(C)C)C(C)C)C(=O)NCC(N)=O` [KLLKLVKKVVGALG], the MIC [11] was greater than 22 µM, the MIC [12] was greater than 22 µM and the MIC [13] was greater than 22 µM. For the same molecule, the MIC [14] was no less than 33 µM, the MIC [6] was greater than 22 µM and the MIC [15] was 22 µM (≈ 32.2 µg/mL). It also gave an MIC [16] greater than 22 µM and an MIC [17] of 22 µM (≈ 32.2 µg/mL).
Work on `NC(=O)CC[C@H](NC(=O)[C@H](Cc1c[nH]c2ccccc12)NC(=O)[C@@H](N)Cc1ccccc1)C(=O)N[C@@H](CCCN=C(N)N)C(=O)N[C@@H](CC(N)=O)C(=O)N[C@@H](Cc1c[nH]c2ccccc12)C(=O)N[C@@H](CCCN=C(N)N)C(=O)N[C@@H](Cc1c[nH]c2ccccc12)C(=O)N[C@@H](CCCN=C(N)N)C(=O)N[C@@H](CCCN=C(N)N)C(N)=O` [FWQRNWRWRR] yielded an MIC [10] of no less than 157 µM.
`CC[C@H](C)[C@H](NC(=O)[C@H](CCCCN)NC(=O)[C@H](Cc1c[nH]c2ccccc12)NC(=O)[C@H](CC(C)C)NC(=O)[C@@H](NC(=O)[C@H](CCCCN)NC(=O)[C@H](Cc1c[nH]c2ccccc12)NC(=O)[C@@H](N)CC(C)C)[C@@H](C)CC)C(=O)N[C@@H](Cc1c[nH]c2ccccc12)C(=O)N[C@@H](CCCN=C(N)N)C(=O)N[C@H](C(=O)N[C@@H](CC(C)C)C(=O)N[C@@H](CCCCN)C(=O)N[C@@H](CC(N)=O)C(=O)N[C@@H](Cc1c[nH]c2ccccc12)C(=O)N[C@@H](CCCN=C(N)N)C(=O)O)C(C)C` [LWKILWKIWRVLKNWR] was tested, and the MIC [18] was no less than 57.2 µM, the MIC [19] was no less than 57.2 µM and the MIC [20] was 28.6 µM (≈ 64 µg/mL). It also gave an MIC [8] greater than 57.2 µM.
`CC[C@H](C)[C@H](NC(=O)CNC(=O)[C@@H](NC(=O)[C@H](CCCCN)NC(=O)[C@H](CCCCN)NC(=O)[C@H](Cc1ccccc1)NC(=O)[C@H](CC(C)C)NC(=O)[C@H](CCCCN)NC(=O)[C@H](Cc1c[nH]c2ccccc12)NC(=O)[C@@H](N)CCCCN)[C@@H](C)CC)C(=O)NCC(=O)N[C@@H](C)C(=O)N[C@H](C(=O)N[C@@H](CC(C)C)C(=O)N[C@@H](CCCCN)C(=O)N[C@H](C(=O)N[C@@H](CC(C)C)C(=O)N[C@H](C(=O)N[C@H](C(=O)NCC(=O)N[C@@H](CC(C)C)C(=O)N1CCC[C@H]1C(=O)N[C@@H](C)C(=O)N[C@@H](CC(C)C)C(=O)N[C@@H](CCCCN)C(=O)N[C@@H](CC(C)C)C(=O)N[C@H](C(=O)N[C@@H](CC(C)C)C(=O)N[C@@H](CCCCN)C(=O)O)[C@@H](C)O)[C@@H](C)O)[C@@H](C)O)C(C)C)C(C)C` [KWKLFKKIGIGAVLKVLTTGLPALKLTLK] showed an MIC [21] of 1.26 µM (≈ 4 µg/mL), an MIC [22] of 0.944 µM (≈ 3 µg/mL) and an MIC [23] of 20.1 µM (≈ 64 µg/mL). For the same molecule, the MIC [24] was 1.26 µM (≈ 4 µg/mL), the MIC [25] was 0.944 µM (≈ 3 µg/mL) and the MIC [26] was 1.26 µM (≈ 4 µg/mL). The MIC (Escherichia coli UB1005) was 0.944 µM (≈ 3 µg/mL).
For `CC[C@H](C)[C@H](NC(=O)[C@H](CCCCN)NC(=O)[C@H](CCCCN)NC(=O)[C@H](Cc1ccccc1)NC(=O)[C@H](CCCCN)NC(=O)[C@H](CCCCN)NC(=O)[C@H](Cc1c[nH]c2ccccc12)NC(=O)[C@@H](N)CCCCN)C(=O)NCC(=O)N[C@@H](C)C(=O)N[C@H](C(=O)N[C@@H](CC(C)C)C(=O)N[C@@H](CCCCN)C(=O)N[C@H](C(=O)N[C@@H](CC(C)C)C(=O)O)C(C)C)C(C)C` [KWKKFKKIGAVLKVL], the MIC [1] was 16 µM (≈ 28.6 µg/mL), the MIC [2] was 16 µM (≈ 28.6 µg/mL) and the MIC [3] was 0.707 µM (≈ 1.26 µg/mL). The MIC (Escherichia coli BL21) was 0.354 µM (≈ 0.632 µg/mL) and the MIC [4] was 0.5 µM (≈ 0.893 µg/mL).
Work on `CC[C@H](C)[C@H](NC(=O)[C@H](Cc1ccccc1)NC(=O)[C@H](CO)NC(=O)[C@H](CCCCN)NC(=O)[C@H](Cc1c[nH]c2ccccc12)NC(=O)[C@@H](N)CCCCN)C(=O)N[C@@H](CCCCN)C(=O)N[C@@H](CCCCN)C(=O)N[C@@H](CC(C)C)C(=O)N[C@H](C(=O)N[C@@H](CO)C(=O)N[C@@H](C)C(=O)N[C@@H](C)C(=O)N[C@@H](CCCCN)C(=O)N[C@@H](CCCCN)C(=O)N[C@H](C(=O)N[C@H](C(=O)N[C@H](C(=O)N[C@@H](C)C(=O)N[C@@H](C)C(=O)N[C@@H](CCCCN)C(=O)N1CCC[C@H]1C(=O)N[C@@H](CC(C)C)C(=O)N[C@H](C(=O)N[C@@H](CCCCN)C(=O)O)[C@@H](C)O)[C@@H](C)O)[C@@H](C)O)C(C)C)[C@@H](C)O` [KWKSFIKKLTSAAKKVTTAAKPLTK] yielded an MIC [21] of 5.76 µM (≈ 16 µg/mL), an MIC [22] of 8.65 µM (≈ 24 µg/mL) and an MIC [23] of 23.1 µM (≈ 64 µg/mL). It also gave an MIC [24] of 2.88 µM (≈ 8 µg/mL), an MIC [27] of 2.88 µM (≈ 8 µg/mL) and an MIC [25] of 15.5 µM (≈ 43 µg/mL). The MIC [26] was 23.1 µM (≈ 64 µg/mL) and the MIC (Escherichia coli UB1005) was 0.721 µM (≈ 2 µg/mL).
